In EP0792271B1, “FURAN DERIVATIVES FOR INHIBITING PNEUMOCYSTIS CARINII PNEUMONIA, GIARDIA LAMBLIA AND CRYPTOSPORIDIUM PARVUM” (priority 1994, dated 1996):
Read-outs that look alike come from different tables or passages of the source.

Legend:
[1] = biological target: T1, topoisomerase II isolated from Drosophila melanogaster (Drosophila melanogaster, UniProt P15348); experiment: Topoisomerase II inhibition (Drosophila melanogaster enzyme); format: biochemical
T1 construct: topoisomerase II isolated from Drosophila melanogaster; from tissue
T1 sequence (P15348 1-1447): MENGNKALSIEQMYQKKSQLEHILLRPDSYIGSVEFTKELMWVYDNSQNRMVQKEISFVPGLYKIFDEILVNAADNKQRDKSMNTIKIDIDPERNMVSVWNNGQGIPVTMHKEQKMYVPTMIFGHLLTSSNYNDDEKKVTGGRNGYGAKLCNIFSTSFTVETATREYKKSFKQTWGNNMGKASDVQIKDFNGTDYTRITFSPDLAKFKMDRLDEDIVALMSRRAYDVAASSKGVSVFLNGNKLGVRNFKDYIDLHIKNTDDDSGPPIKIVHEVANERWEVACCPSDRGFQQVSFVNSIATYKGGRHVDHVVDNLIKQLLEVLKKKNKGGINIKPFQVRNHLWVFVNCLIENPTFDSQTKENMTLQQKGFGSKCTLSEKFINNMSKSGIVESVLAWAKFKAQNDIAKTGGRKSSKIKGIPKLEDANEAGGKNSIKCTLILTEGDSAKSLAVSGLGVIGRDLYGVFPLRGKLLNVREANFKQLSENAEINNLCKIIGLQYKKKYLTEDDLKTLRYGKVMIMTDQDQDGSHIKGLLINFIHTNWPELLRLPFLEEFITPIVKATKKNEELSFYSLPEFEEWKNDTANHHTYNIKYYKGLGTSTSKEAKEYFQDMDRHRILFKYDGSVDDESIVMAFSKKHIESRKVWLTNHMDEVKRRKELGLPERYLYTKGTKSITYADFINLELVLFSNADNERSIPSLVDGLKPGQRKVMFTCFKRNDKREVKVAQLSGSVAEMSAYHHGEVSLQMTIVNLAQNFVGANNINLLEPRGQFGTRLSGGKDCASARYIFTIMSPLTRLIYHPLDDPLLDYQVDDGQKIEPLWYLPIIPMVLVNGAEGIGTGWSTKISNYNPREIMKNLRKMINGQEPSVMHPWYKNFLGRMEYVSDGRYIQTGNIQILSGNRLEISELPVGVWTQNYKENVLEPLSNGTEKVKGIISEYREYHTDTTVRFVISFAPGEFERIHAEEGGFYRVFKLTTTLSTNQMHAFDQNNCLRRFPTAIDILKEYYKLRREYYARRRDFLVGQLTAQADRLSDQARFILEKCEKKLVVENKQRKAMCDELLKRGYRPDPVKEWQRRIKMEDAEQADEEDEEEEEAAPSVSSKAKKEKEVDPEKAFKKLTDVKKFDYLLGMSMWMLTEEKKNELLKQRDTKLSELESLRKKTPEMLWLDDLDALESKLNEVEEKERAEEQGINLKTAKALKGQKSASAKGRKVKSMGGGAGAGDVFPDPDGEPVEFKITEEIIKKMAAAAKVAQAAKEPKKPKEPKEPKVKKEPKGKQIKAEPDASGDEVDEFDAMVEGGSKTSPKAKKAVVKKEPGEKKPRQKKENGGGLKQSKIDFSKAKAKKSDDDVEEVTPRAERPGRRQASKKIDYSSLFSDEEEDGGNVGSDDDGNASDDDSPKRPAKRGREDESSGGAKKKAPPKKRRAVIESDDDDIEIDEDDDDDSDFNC

[2] = biological target: topoisomerase II isolated from Giardia lamblia; experiment: Topoisomerase II inhibition (Giardia lamblia enzyme); format: biochemical; conditions: 50% inhibition of topoisomerase II isolated from Giardia lamblia; read-out: IC50 Topoisomerase Activity II G.l.
Giardia lamblia = experiment: Inhibition of growth of Giardia lamblia in in vitro culture; format: cell-based; conditions: read-out: IC50 Giardia lamblia
Pneumocystis carinii = experiment: In vivo activity against Pneumocystis carinii (lung cyst counts and toxicity); conditions: for Toxicity: toxicity scale, larger value = more severe, values greater than 2 indicate deaths of some animals
poly A poly T = experiment: DNA thermal melting (increase in Tm of poly A poly T); format: binding; conditions: MES buffer pH 6.0, 0.1 M NaCl, ratio of 0.3 moles of compound to nucleic acid bases
Experimental: (§1) Thermal melting curves for DNA and its complexes with compounds from Examples 4, 6, and 7-9 are determined as previously described in F.A. Tanious, et al., J.Biomol. Structure & Dynamics 11:1063 (1994) and W.D. Wilson, et al., Biochemistry 32:4098 (1993), by following the adsorption change at 260 nm as a function of temperature. Tm values were determined from first derivative plots. Compounds are compared by the increase in Tm (ΔTm=Tm of complex - Tm of the free nucleic acid) they produce in MES buffer (0.01M 2-(N-morpholino) ethanesulfonic acid, 0.001 M EDTA, 0.1 M NaCl adjusted to pH 6.0) at saturating amounts of compound (a ratio of 0.3 moles of compound to nucleic acid bases) unless otherwise indicated.

[3] = tested on: oligomer d(GCGCAATTGCGC)2; experiment: DNA thermal melting (increase in Tm of oligomer); format: binding; conditions: increase in thermal melting of the oligomer d(GCGCAATTGCGC)2; MES buffer pH 6.0
Experimental: as §1

[4] = biological target: topoisomerase I isolated from Pneumocystis carinii; experiment: Topoisomerase I inhibition (Pneumocystis carinii enzyme); format: biochemical; conditions: 50% inhibition of topoisomerase I isolated from Pneumocystis carinii
[5] = 50% inhibition of topoisomerase II isolated from Drosophila melanogaster, read-out: IC50 Topoisomerase Activity II D.m.
[6] = 50% inhibition of growth of Giardia lamblia in in vitro culture
[7] = Pneumocystis carinii, iv, read-out: cyst/g lung (% of control)

| Molecule | IC50 [2] | IC50 [1] | IC50 (Giardia lamblia; Giardia duodenalis) | ΔTm DNA (poly A poly T) | other results |
| --- | --- | --- | --- | --- | --- |
| 2,5-bis[2-(imidazolinyl)phenyl]-3,4-bis(methoxymethyl)furan [Compound 18] | 800 to 1000 nM | – | – | – | IC50 [1, 5]: 12.5 µM; IC50 (Giardia lamblia; [6]): 4420 nM |
| c1cc(-c2ccc(-c3ccc(C4=NCCN4)cc3)o2)ccc1C1=NCCN1 [Compound 2, 2,5-bis[4-(2-imidazolinyl)phenyl]furan] | – | 8 µM | 800 nM | – | response vs control in vivo at 23.3 µM (Pneumocystis carinii; [7]): 35.4%; Toxicity (Pneumocystis carinii; dosage 23.3 µM/kg/day intravenous): +2 |
| c1cc(-c2ccc(-c3ccc(C4=NCCCCN4)cc3)o2)ccc1C1=NCCCCN1 [Compound 4, 2,5-bis[4-(4,5,6,7-tetrahydro-1H-1,3-diazepin-2-yl)phenyl]furan] | 1500 nM | 25 to 50 µM | 1100 nM | > 28 °C | response vs control in vivo at 0.18 µM (Pneumocystis carinii; [7]): 115%; response vs control in vivo at 2.3 µM (Pneumocystis carinii; [7]): 2.9%; Toxicity (Pneumocystis carinii; dosage 0.18 µM/kg/day intravenous): 0; Toxicity (Pneumocystis carinii; dosage 2.3 µM/kg/day intravenous): +3; ΔTm Oligomer [3]: 10.7 °C |
| c1cc(-c2ccc(-c3ccc(C4=NC5CCCCC5N4)cc3)o2)ccc1C1=NC2CCCCC2N1 (stereo not shown) [Compound 5, 2,5-bis[4-(3a,4,5,6,7,7a-hexahydro-1H-benzimidazol-2-yl)phenyl]furan] | 3000 to 6000 nM | 50 µM | 1700 nM | 24.5 °C | response vs control in vivo at 9.2 µM (Pneumocystis carinii; [7]): 80.5%; Toxicity (Pneumocystis carinii; dosage 9.2 µM/kg/day intravenous): +1; ΔTm Oligomer [3]: 5.6 °C |
| OCCN1CCN=C1c1ccc(-c2ccc(-c3ccc(C4=NCCN4CCO)cc3)o2)cc1 [Compound 6, 2,5-bis{4[2-(N-2-hydroxyethyl)imidazolinyl]-phenyl}furan] | 20000 nM | 200 µM | 5300 nM | 12.2 °C | response vs control in vivo at 4.8 µM (Pneumocystis carinii; [7]): 107%; Toxicity (Pneumocystis carinii; dosage 4.8 µM/kg/day intravenous): +3; ΔTm Oligomer [3]: 1 °C |
| CCN1CCN=C1c1ccc(-c2ccc(-c3ccc(C4=NCCN4CC)cc3)o2)cc1 [Compound 7, 2,5-bis-{4-[2-(N-ethylimidazolinyl)]phenyl}furan] | 25000 nM | – | – | 11.8 °C | – |
| Cc1c(-c2ccc(C(=N)N)cc2)oc(-c2ccc(C(=N)N)cc2)c1C [Compound 8, 2,5-bis(4-amidinophenyl)-3,4-dimethyl furan] | 750 nM | 2.4 µM | 260 nM | – | Toxicity (Pneumocystis carinii; dosage 24.7 µM/kg/day intravenous): +1; IC50 [4]: < 3.12 µM |
| Cc1ccc(Oc2cc(-c3ccc(C4=NCCN4)cc3)oc2-c2ccc(C3=NCCN3)cc2)cc1 [Compound 9, 2,5-[bis{4-(2-imidazolinyl)}phenyl]3-p-tolyloxy furan] | 2000 to 4000 nM | 25 µM | > 100000 nM | 18.1 °C | Toxicity (Pneumocystis carinii; dosage 9.3 µM/kg/day intravenous): +2; IC50 [4]: 12.5 µM |
| Cc1ccc(Oc2cc(-c3ccc(C4=NCCCN4)cc3)oc2-c2ccc(C3=NCCCN3)cc2)cc1 [Compound 10] | 1000 to 3000 nM | 50 to 100 µM | 3300 nM | > 28 °C | Toxicity (Pneumocystis carinii; dosage 1.8 µM/kg/day intravenous): +3 |
| NCCNC(=O)c1ccc2[nH]c(-c3ccc(-c4ccc(-c5ccc(-c6nc7cc(C(=O)NCCN)ccc7[nH]6)cc5)o4)cc3)nc2c1 [Compound 11, 2,5-bis{4-[5-(N-2-aminoethylamido)benzimidazol-2-yl]phenyl}furan] | 5000 nM | > 300 µM | 620 nM | – | Toxicity (Pneumocystis carinii; dosage 4.1 µM/kg/day intravenous): +4 |
| CN(C)NC(=O)c1ccc(-c2ccc(-c3ccc(C(=O)NN(C)C)cc3)o2)cc1 [Compound 12, 2,5-bis(4-N,N-dimethylcarboxhydrazidephenyl) furan] | 600 to 1200 nM | – | – | – | cyst/g lung (% of control) (Pneumocystis carinii; dosage 7.78 µM/kg/day intravenous, percentage of saline-treated controls): 20.7 % of control; Toxicity (Pneumocystis carinii; dosage 7.78 µM/kg/day intravenous): +3; IC50 [1, 5]: 30 to 60 µM; IC50 (Giardia lamblia; [6]): 350 nM |
| CN(C)CCCNC(=N)c1ccc(-c2ccc(-c3ccc(C(=N)NCCCN(C)C)cc3)o2)cc1 [Compound 14, 2,5-bis{4-[3-(dimethylaminopropyl)amidino]phenyl}furan] | 250 nM | > 6.2 µM | 8980 nM | > 28 °C | Toxicity (Pneumocystis carinii; dosage 3.9 µM/kg/day intravenous): +3 |
| N=C(NC1CC1)c1ccc(-c2ccc(-c3ccc(C(=N)NC4CC4)cc3)o2)cc1 [Compound 15, 2,5-bis-[4-N-(cyclopropylamidino)phenyl]furan] | 1250 nM | – | 630 nM | > 28 °C | – |
| N=C(NCCO)c1ccc(-c2ccc(-c3ccc(C(=N)NCCO)cc3)o2)cc1 [Compound 16, 2,5-bis-{4-[(N-2-hydroxyethyl)amidino]phenyl}furan] | 1200 to 2500 nM | 25 to 50 µM | 780 nM | 21.1 °C | Toxicity (Pneumocystis carinii; dosage 10.4 µM/kg/day intravenous): 0 |
| CN(C)CCNC(=N)c1ccc(-c2ccc(-c3ccc(C(=N)NCCN(C)C)cc3)o2)cc1 [Compound 17, 2,5-bis[4-N-(dimethylaminoethyl)amidino]phenyl furan] | 800 nM | 12.5 µM | 10800 nM | – | – |
| N=C(NCCCN)c1ccc(-c2ccc(-c3ccc(C(=N)NCCCN)cc3)o2)cc1 [Compound 19, 2,5-bis-{4-[N-(3-aminopropyl)amidino]phenyl}furan] | 625 nM | 25 µM | 59 nM | – | – |
| Cc1cc(-c2ccc(C(=N)NC(C)C)cc2)oc1-c1ccc(C(=N)NC(C)C)cc1 [Compound 20, 2,5-bis[4-(N-isopropylamidino)phenyl]-3-methylfuran] | 1000 to 2000 nM | 3 µM | 4400 nM | – | IC50 [4]: 50 to 100 µM |
| N=C(N)c1ccc(OCCCCCOc2ccc(C(=N)N)cc2)cc1 [Pentamidine, reference compound] | – | – | – | – | response vs control in vivo at 22.1 µM (Pneumocystis carinii; [7]): 3.66%; Toxicity (Pneumocystis carinii; dosage 22.1 µM/kg/day intravenous): +2 |
